# From patent EP4186500A1, “MEK INHIBITORS FOR THE PREVENTION AND TREATMENT OF LONG COVID SYNDROME” (Atriva Therapeutics GmbH, priority 2021, dated 2023)
# Like-named read-outs stand apart in the source and are kept apart here.
# Experiments:
# SARS-CoV-2 (FI) = type: cell-based, Severe acute respiratory syndrome coronavirus; settings: ATR-002 100 µM
# [1] = test system: SARS-CoV-2 SA variant B.1351; type: cell-based, Severe acute respiratory syndrome coronavirus; settings: MOI 0.1, 1 and 10, 50, 75 and 100µM, 24 hours
structure (smiles),measurement,setting,value
"O=C(O)c1ccc(F)c(F)c1Nc1ccc(I)cc1Cl [ATR-002, 2-(2-chloro-4-iodophenylamino)-N-3,4-difluoro benzoic acid]",production of progeny viral particles,"SARS-CoV-2 (FI); A549-ACE2/TMPRSS2 cells, MOI of 0.001",reduced the production of progeny viral particles
same,production of progeny viral particles,"SARS-CoV-2 (FI); A549-ACE2/TMPRSS2 cells, MOI: 0.01",did not affect the production of progeny viral particles
same,production of progeny viral particles,"SARS-CoV-2 (FI); Calu-3 cells, MOI of 0.001",reduced the production of progeny viral particles
same,virus yield,[1]; Calu-3 cells,reduction of virus yield
same,virus yield,[1]; Vero cells,reduction of virus yield
